# Experimental data as given in the pKa sets of Baltruschat and Czodrowski (2020).
# Settings: basic group
row,Compound,pKa
1,CC(C)CNCC(C)C,10.6
2,C#CC(C)(C(C)C)N(C)C(C)C (configuration not stated),8.7
3,c1nc(Cc2c[nH]c(Cc3nc(Cc4cnc[nH]4)c[nH]3)n2)c[nH]1,7.49
4,Cc1n[nH]c(C)c1C,4.82
5,C(=C\c1nnnn1-c1ccccc1)/c1ccccc1,-2.3
6,CC[C@H]1CN2CCc3cc(OC)c(OC)cc3[C@@H]2C[C@@H]1CC=O,8.11
7,NCC(=O)CN,8.32
8,Nc1ccc(S(=O)(=O)Nc2cccnc2)cc1,3
9,Cn1cc([O-])nc1N,13.4
10,CCN(CC)CCOCCN(C)C,10.2
11,CC(C)(C)c1ccncc1,5.95
12,OCCCCCc1cccnc1,5.72
13,CSc1ccncc1,5.97
14,Cc1cc([S-])ncn1,7.3
15,CNCCCC(=O)[O-],10.8
16,C=C(C)[C@H]1CN[C@H](C(=O)[O-])[C@H]1CC(=O)OC,9.52
17,CC(C)N/C=[NH+]/c1ccc(-c2c[nH]cn2)cc1,5.58
18,ClC1CC2CCN1CC2 (configuration not stated),6.98
19,O=C([O-])c1ccc(O)c2ncccc12,4.8
20,CCOc1ccc2nccc([C@@H](O)[C@@H]3C[C@H]4CC[NH+]3C[C@@H]4CC)c2c1,4.05
21,Cc1cc(-c2ccccc2)nn2cc(CN3CCOCC3)nc12,6.3
22,C#CCCCN,10.2

row,Compound,pKa
1,NCCCCCc1ccncc1,10.3
2,CC(C)(C)c1ccc(C(O)CCCN2CCC(C(O)(c3ccccc3)c3ccccc3)CC2)cc1 (configuration not stated),8.6
3,Nc1ncnc(N)c1N,5.78
4,CN(C)CCc1c[nH]c2ccc([O-])cc12,11.2
5,CCN(CC)Cc1c([O-])c(Cl)cc(Cl)c1Cl,11.8
6,O=C(/C=C1/C=CC=CN1)c1ccccc1,6.08
7,CCc1cc(Cl)n(C)c2nc3ccccc3c1-2,7.46
8,Nc1nc(N)c2cn[nH]c2n1,5.58
9,CCC(C)(N)C(=O)[O-] (configuration not stated),9.98
10,c1cc(-c2ccoc2)ccn1,5.72
11,CC(C=C(c1cccs1)c1cccs1)N1CCCCC1 (configuration not stated),8.46
12,CCN1CCCC1,11
13,C=CCN(CC=C)CCC[NH+](CC=C)CC=C,6.96
14,C=CC(=O)OCCN(C)C,7.9
15,Nc1ccc(Cl)cc1[N+](=O)[O-],-0.88
16,CCNCc1ccc(C)cc1,10
17,CC1(C)CC2CCN1C(=O)C2 (configuration not stated),5.33
18,COc1ccc(-c2cnc(-c3ccc(C)cc3)o2)cc1,1.26
19,C[C@H]1[C@@H]([NH3+])[C@@H](C)[C@@H](N)[C@@H](C)[C@H]1[NH3+],5.15
20,Nc1cncn1[C@H]1O[C@@H](CO)[C@H](O)[C@@H]1O,6.05
21,C1CSCCN1,9.05
22,C[n+]1c([O-])c([O-])nc2ccccc21,9.74

row,Compound,pKa
1,O=C(N[C@@H]1C[C@H]2CC[C@@H](C1)N2Cc1ccccc1)c1cccc2c1OCCO2,8.68
2,COc1ncnc2ccccc12,3.13
3,CCCCNc1ccccc1,5.11
4,c1ccc([C@@H]2CN3CCC[C@@H]3c3ccccc32)cc1,9.12
5,CC(C)[C@H]1CC[C@H](C)C[C@@H]1N,10.6
6,CCN(C)CCCNC(=O)/C=N/[O-],9.97
7,C1CCC2NCCCC2C1 (configuration not stated),10.9
8,CC(N)(C(=O)[O-])c1ccccc1 (configuration not stated),9
9,CC(=O)C1C(=O)c2ccccc2C1=O,2.88
10,[O-]c1[nH+]cnc2nc[nH]c12,1.99
11,[NH3+]c1ccc(-c2ncc(-c3ccc(Cl)cc3)o2)cc1,-0.1
12,c1ccc2c(c1)CNCCC[NH2+]Cc1ccccc1OCCO2,7.82
13,CCC(=O)C(CC(C)N1CCOCC1)(c1ccccc1)c1ccccc1 (configuration not stated),6.89
14,CC(=O)/C(CN1CCOCC1)=N\O,6.1
15,CCCN(CC)C(CC)C(=O)Nc1c(C)cccc1C (configuration not stated),6.62
16,c1ccc(-c2nc3ccccc3s2)cc1,0.7
17,CC(C)CN(CC(C)O)CC(C)O (configuration not stated),8.8
18,Cc1cccc(C2NCCS2)c1 (configuration not stated),5.26
19,c1ccc(Nc2ncnc3[nH]ncc23)cc1,3.92
20,CN[C@@H]1C[C@@H]1[NH2+]C,3.56
21,Nc1cccc2[nH+]cccc12,0.97
22,[O-]c1nccc2c1cnc1ccccc12,11.3

row,Compound,pKa
1,c1ccc2cc(NCCNc3ccc4ccccc4c3)ccc2c1,3.7
2,N[C@@H](Cc1nc(I)[n-]c1I)C(=O)[O-],9.76
3,CN(C)Cc1ccc(C[NH+](C)C)c(O)c1O,6.39
4,CN1CCCCC1,10.1
5,C#CCCCN(C)C,8.88
6,Nc1c2c(ncn2Cc2ccccc2)nc[n+]1[O-],2.4
7,CCC(=O)c1ccccc1,17.6
8,CC[n+]1ccc([O-])nc1[S-],8.7
9,CCN(CC)CC(=O)N(C)c1ccccc1C,8.74
10,CC(C)NCC[NH2+]C(C)C,7.59
11,Cc1nccc2c1[nH]c1ccc([N+](=O)[O-])cc12,6.24
12,NCc1ccc(Cl)c(N)c1,9.33
13,NCc1ccc(C=O)o1,8.1
14,CCCNC(C)C(=O)[O-] (configuration not stated),10.2
15,CN1C(=O)N(CCN2CCOCC2)C(=O)C(C)(C2=CCCCC2)C1=O (configuration not stated),5.75
16,COc1cc2c(cc1OC)NCC2,7.3
17,CC(Cc1ccccc1)NCCC#N (configuration not stated),7.23
18,O=C([O-])C1CCCN1 (configuration not stated),10.6
19,Cc1ccc(CON)cc1,4.4
20,Cc1cc(C)nc(N)n1,4.93
21,CNCCCNC(=O)/C=N/[O-],10.6
